Consider 14 compounds from patent US20030149090A1, “Compositions for the treatment of infectious diseases” (priority 2001, published 2003).

“Also recorded” adds a separate entry of the source.

The test system of one assay is NK cells and T cells. The assay can be described thus: Flow cytometry assay of lymphocyte apoptosis induced by Hp(2-20)-activated monocytes. Format: cell-based, human. An excerpt:
(§1) Peripheral blood was obtained from healthy blood donors at Sahlgren's Hospital, Göteborg, Sweden. […] See Hansson et al. 1996. […] J Immunol. 156:427.
Apoptosis was monitored by use of flow cytometry, as described elsewhere. See Mellqvist et al. 2000. […] Blood. 96:1961-8. T cells or NK cells were gated after exposure to monocytes, and the gate was set to comprise lymphocytes with a reduced forward scatter and an increased right angle scatter characteristic of apoptosis. See Hansson et al. 1996. Two additional methods were used to determine apoptosis in NK cells and T cells: analysis of DNA strand breaks by terminal deoxynucleotidyl transferase-mediated bromolated dUTP nick end labelling of DNA fragments (TUNEL assay) and Annexin V staining, as described elsewhere. See Mellqvist et al.; Hansson et al. 1999. […] J Interferon Cytokine Res. 19:1135-44.
One million cells were stained with appropriate fluorescein isothiocyanate (FITC)- and phycoerythrin (PE)-conjugated monoclonal antibodies (Becton & Dickinson, Stockholm, Sweden; 10 μl/10^6 cells), as described in detail elsewhere. See Hansson et al. 1999. Cells were analyzed by use of flow cytometry on a FACSort with a Lysys II software program (Becton & Dickinson). Lymphocytes were gated on the basis of forward and right angle scatter. The flow rate was adjusted to <200 cells x s^−1 and at least 5×10^3 cells were analyzed for each sample.
After incubation, cells in a lymphocyte gate were assayed for morphological features of apoptosis (reduced forward and increased right angle scatter) by use of flow cytometry. In A, data are the frequency of apoptotic CD56^+ (NK; dark gray bars) or CD3ε^+ (T; open bars) after the following treatments:
Monocytes and/or lymphocytes were prepared as described in Methods. After incubation for 16 hrs, cells in a lymphocyte gate were assayed for morphological features of apoptosis (reduced forward and increased right angle scatter) by use of flow cytometry. Data are the frequency of apoptotic lymphocytes. histamine dihydrochloride, ranitidine, and Hp(2-20) were used at 50 μM, catalase at 100 U/ml, and SOD at 50 U/ml.

Assay [1] deals with NADPH-oxidase activity of monocytes. Put plainly: NADPH-oxidase activity of monocytes, isoluminol-enhanced chemiluminescence. Format: cell-based, human. The procedure: as §1
NADPH-oxidase activity was determined using an isoluminol-enhanced chemiluminescence (CL) system that quantitates extracellular reactive oxygen species (ROS). See Dahlgren, C., Karlsson, A. 1999. Respiratory burst in human neutrophils. J Immunol Methods 232:3-14.
Superoxide anion production in elutriated monocytes was investigated by isoluminol-amplified CL (A). Cells were treated with histamine (50 μM) or the histamine H2 receptor antagonist ranitidine (50 μM).

The test system of the next assay is Chlamidia trachomatis. The settings on record: ophthalmic solution 0.09% by weight, containing erythromycin, every three hours. How it is done:
A subject presenting an eye infection due to Chlamidia trachomatis is treated with the compositions of the described embodiment using an ophthalmic solution of histamine dihydrochloride at 0.09% by weight of formulation. Commercially available ophthalmic solutions are well known in the art. Additionally, the ophthalmic solution, preferably in drop form, contains erythromycin. Application of the solution to the eye occurs every three hours. A solution containing only the ROM production and release inhibiting compound is given hourly to ease the discomfort of the subject.

The next assay relates to Tinea infection. Conditions: cream, 0.08% by weight, topical four to five times a day.
A further assay deals with microbial infections. Conditions: 0.08% by weight together with antimicrobial.
Another assay has as its target NADPH oxidase (Homo sapiens, UniProt P04839). Conditions: membrane-bound phagocyte oxidase, substrate; cited from earlier work.
Assay [2] concerns Arcanobacterium haemolyticum. Conditions: reported in the literature; cited from earlier work.
In another assay the test system is Helicobacter pylori. The assay can be described thus: Treatment of ulcers caused by Helicobacter pylori, oral controlled release device. It counts as in vivo. Conditions: in combination with chemotherapeutics. How it is done: A patient diagnosed with ulcers caused by Helicobacter pylori is treated with the compounds of the described embodiment. A controlled release mechanism is replenished with an effective dose of the ROM inhibitory compound NADPH oxidase inhibitor diphenlyeneiodonium and administered to the patient by oral intake of the device. As the device rests in the patient's stomach it simultaneously delivers the compounds of the described embodiment and decomposes in order to allow excretion from the body. The compounds of the described embodiment are administered in combination with chemotherapeutics typically administered for such an infection, such as amoxycillin, clarithromycin, tetracycline, or metronidazole.

The test system of a further assay is Streptococcus pneumonia. The assay can be described thus: Treatment of Streptococcus pneumonia lung infection using a nebulizer. Conditions: 0.05% by weight, mist through a nebulizer. Format: in vivo. The procedure: A subject diagnosed with Streptococcus pneumonia is treated with compounds of the described embodiment in the form of a nebulizer. The nebulizer is held firmly against the oral-nasal cavities of a patient with a respiratory infection. The nebulizer is used to deliver an aerosol mist as the patient inhales deeply. The aerosol mist contains either solely an effective amount of the preparation herein described or a mixture of the preparation and the chemotherapeutic used often administered for such an infection, such as, cephalexin. The ROM inhibitory compound NADPH oxidase inhibitor diphenlyeneiodonium in a concentration of 0.05% by weight of formulation is delivered as a mist in the patients lungs through a nebulizer.

Assay [3] deals with diarrhea-causing pathogens (Escherichia coli, Salmonella, Shigella or the like). Put plainly: Treatment of diarrhea by oral administration of a capsule. It counts as in vivo. Conditions: capsule 0.8% by weight, three to ten per day for seven to thirty days, with chemotherapeutic. The procedure: A subject suffering from diarrhea due to any number of pathogenic geni, speci, or strain of Escherichia coli, Proteus mirabilis, Salmonella enteritidis, Klebsiella Yersinia, Shigella, Serratia, Candida, Giardia intestinalis, Cryptosporidium, Vibrio cholera, Campylobacter, Ascaris or the like responsible for gastrointestinal distress in the form of diarrhea or the like is treated with a capsule containing the ROM inhibitory compound NADPH oxidase inhibitor diphenlyeneiodonium in a concentration of 0.8% by weight of formulation in addition to administration of the appropriate chemotherapeutic compound, such as an aminoglycoside, chloramphenicol, trimethoprimsulfa-methoxazole, doxycycline, or a fluoroquinolone. The treatment consists of oral intake of three to ten capsules per day for a period of seven to thirty days (depending the causative agent of the infection).

In the next assay the test system is Streptococcus mutans. The assay can be described thus: Treatment of dental carries using a toothpaste and mouthwash. It counts as in vivo. Conditions: toothpaste and mouthwash 0.05% by weight, five times per day for seven days. How it is done:
A subject suffering from dental carries due to Streptococcus mutans is treated with a toothpaste and a mouthwash containing the ROM inhibitory compound NADPH oxidase inhibitor diphenlyeneiodonium in a concentration of 0.05% by weight of formulation. The treatment consists of five tooth brushings with this toothpaste and mouthwash applications per day for a period of seven days.

In a further assay the test system is S somaliensis. The settings on record: McNeil and Brown 1994; cited from earlier work.
Assay [4] has as its system NADPH-oxidase activity of monocytes. Conditions: earlier finding, Bylund et al. 2001; cited from earlier work.
The mark [5] stands for this setting: ranitidine 50 μM with histamine 50 μM.
The mark [6] stands for this setting: histamine 50 μM, catalase 100 U/ml, SOD 50 U/ml, Hp(2-20) 50 μM, 16 hrs.

Text for Tinea infection: Treatment of the subjects consists of the topical application of the medication four to five times a day at the lesion site. When treating fungal growths, care is taken not to contaminate new areas with fungal spores.
Experimental for microbial infections: The ability of the ROM production and release inhibition compounds of the described embodiment to increase the effectiveness of antimicrobials is evaluated in two groups of 10 subjects each. No subjects are suffering from active infections at the initiation of the study. Group I subjects receive the type of antimicrobial used in treating the specific infection according to the dosage given by the manufacturer. […] The healing time of the patient in each group is then monitored.

As to `Cl.Cl.NCCc1c[nH]cn1` [Histamine, Histamine dihydrochloride], in the assay on NK cells and T cells (dihydrochloride), the “Protection of NK cells and T cells from monocyte-dependent, Hp(2-20)-induced apoptosis” value was “resuced T cells and NK cells from apoptosis; also recorded: protected NK cells/T cells from the monocyte-induced apoptosis; also recorded: prevent the triggering of NK cell and T cell apoptosis; also recorded: protect T cells and NK cells from apoptotic cell death”. Further, in assay [1] (histamine 50 μM, elutriated monocytes, dihydrochloride), the “Inhibition of Hp(2-20)-induced oxygen radical formation in monocytes” value was “markedly inhibited; also recorded: reduce or inhibit”. In the assay on Chlamidia trachomatis, the “Time period of bacterial eye infection, damage and discomfort” value is given as “reduces the time period of bacterial infection”. The “Healing time compared to the control group” value with Tinea infection was “decrease in healing time”. For the same compound, the “Healing time with antimicrobial plus ROM inhibitory composition versus antimicrobial alone” value with microbial infections was “faster healing time”. With `NC(=O)C1=CN([C@@H]2O[C@H](COP(=O)(O)OP(=O)(O)OC[C@H]3O[C@@H](n4cnc5c(N)ncnc54)[C@H](O)[C@@H]3O)[C@@H](O)[C@H]2O)C=CC1` [NADH], the Michaelis-Menten constant (Km) at NADPH oxidase was 450 µM. Turning to `NC(=O)C1=CN([C@@H]2O[C@H](COP(=O)(O)OP(=O)(O)OC[C@H]3O[C@@H](n4cnc5c(N)ncnc54)[C@H](OP(=O)(O)O)[C@@H]3O)[C@@H](O)[C@H]2O)C=CC1` [NADPH], the Michaelis-Menten constant (Km) on NADPH oxidase is 45 µM. For the compound `O=C(N[C@H](CO)[C@H](O)c1ccc([N+](=O)[O-])cc1)C(Cl)Cl` [chloramphenicol], the “Susceptibility of A. haemolyticum” value in [2] is recorded as “uniformly susceptible”.

Regarding `c1ccc2c(c1)[I+]c1ccccc1-2` [diphenlyeneiodonium], in the assay with Helicobacter pylori, the “Treatment of gastrointestinal ulcers” value is recorded as “effective in expediting the treatment of gastrointestinal ulcers”. The “Recovery of a patient with pneumonia” value in the assay on Streptococcus pneumonia is “hastens the recovery”. In [3], the Treatment of diarrhea result is given as “effective in accelerating the treatment of diarrhea”. For the same compound, in the assay with Streptococcus mutans, the “Treatment of dental carries” value is reported as “effective in treating the dental carrier”.

Consider `CC[C@H]1OC(=O)[C@H](C)[C@@H](O[C@H]2C[C@@](C)(OC)[C@@H](O)[C@H](C)O2)[C@H](C)[C@@H](O[C@@H]2O[C@H](C)C[C@H](N(C)C)[C@H]2O)[C@](C)(O)C[C@@H](C)C(=O)[C@H](C)[C@@H](O)[C@]1(C)O` [erythromycin], for which, in the assay with S somaliensis, the “In vitro sensitivity of S somaliensis” value is listed as “sensitive”.

On to `CC(=O)O[C@H]1C[C@@]2(C)[C@@H](C[C@@H](O)[C@H]3[C@@]4(C)CC[C@@H](O)[C@@H](C)[C@@H]4CC[C@@]32C)/C1=C(\CCC=C(C)C)C(=O)O` [fusidic acid], for which the “In vitro sensitivity of S somaliensis” value in the assay with S somaliensis is recorded as “sensitive”. Besides, in [2], the “Susceptibility of A. haemolyticum” value is “uniformly susceptible”.

On to `CNC(=C[N+](=O)[O-])NCCSCc1ccc(CN(C)C)o1.Cl` [ranitidine, ranitidine hydrochloride], for which the “Effect on the histamine-induced protection of T cells and NK cells from apoptosis” value in the assay on NK cells and T cells (setting [5]) was “antagonized”. For the same compound, the “Effect on histamine's inhibition of Hp(2-20)-induced oxygen radical formation” value in [1] (setting [5]) was “reversed the inhibition”. For the compound `[H]/N=C(/N)N[C@H]1[C@H](O)[C@@H](O)[C@H](O[C@@H]2O[C@@H](C)[C@](O)(C=O)[C@H]2O[C@@H]2O[C@@H](CO)[C@H](O)[C@@H](O)[C@@H]2NC)[C@@H](N/C(N)=N\[H])[C@@H]1O` [streptomycin], in the assay on S somaliensis, the “In vitro sensitivity of S somaliensis” value is listed as “sensitive”.

Regarding `NC[C@H]1O[C@H](O[C@H]2[C@H](O)[C@@H](O[C@H]3O[C@H](CO)[C@@H](O)[C@H](N)[C@H]3O)[C@H](N)C[C@@H]2N)[C@H](N)C[C@@H]1O` [tobramycin], in the assay on S somaliensis, the “In vitro sensitivity of S somaliensis” value was “sensitive”. Regarding `COc1cc(Cc2cnc(N)nc2N)cc(OC)c1OC` [trimethoprim], the “In vitro sensitivity of S somaliensis” value with S somaliensis was “resistant”.

For “AKKVFKRLEKLFSKIQNDK [Hp(2-20), cecropin-like peptide derived from Helicobacter pylori]”, the “Induction of NK cell and T cell apoptosis by monocytes treated with the peptide” value in the assay on NK cells and T cells (Hp(2-20) 50 μM, lymphocytes + 25% or 50% monocytes, overnight (16 hrs) incubation) is “induces apoptosis of T lymphocytes with CD3ε^+ phenotype and natural killer cells with CD56^+ phenotype; also recorded: triggers programmed cell death (apoptosis) of NK cells and T cells; also recorded: pronounced in NK cells as well as in CD3ε^+ T cells; also recorded: triggered NK cell and T cell death by apoptosis”. For the same compound, in [4], the “Superoxide anion formation in phagocytic cells” value was “potently triggers superoxide anion formation”. In the case of Superoxide dismutase [SOD], in the assay on NK cells and T cells (setting [6]), the “Protection of NK cells and T cells from monocyte-dependent, Hp(2-20)-induced apoptosis” value is on record as “completely prevented”. The same measure, in the same setting: next, catalase: “completely prevented”.

For orientation: Km means the concentration of substrate that gives half-maximal velocity.
